Assay: In-use stability impurity analysis (HPLC) of pimavanserin 34 mg capsule contents in vehicles
Assay type: physicochemical
Conditions: for Impurity D / Impurity Unknown RRT 0.90 / Impurity Unknown RRT 0.99 / Impurity Unknown RRT 1.10 / Total Imp.: ambient
Experimental: Analytical HPLC Stability Study experiments (Example 1) were performed on Agilent 1200 Series, or equivalent; Waters XBridge C18 column, 5 μm 150×4.6 mm; mobile phase: Solvent A: 50 mM ammonium bicarbonate, pH 8.0; Solvent B: acetonitrile/methanol, 80:20 (v/v); Flow rate: 1 mL/min; Inj. Volume 20 μL; Autosampler Temp. 5° C.; column temperature: 40° C., detection UV at 210 nm; sample concentration (as free base) assay: 0.068 mg/mL, impurity: 0.68 mg/mL; standard concentration (as free base) 0.068 mg/mL; PLOQ Std. 0.05% of 0.68 mg/mL; SST solution, 1% of 0.68 mg/mL (impurities A, C, D, E, F, and G); diluent for standards 80/20 (v/v) ethanol/water; diluent for samples, ethanol; run time 40 min; gradient method: 0 min mobile phase A (90%) and mobile phase B (10%) to 30 min mobile phase A (0%), and mobile phase B (100%); then 30.1 min to 40 min mobile phase A (90%), mobile phase B (10%).
Samples for the assessment of the degradation products stability from solutions or mixtures of pimavanserin in vehicles were prepared as follows. Four samples (n=4) were prepared for each vehicle as follows.
For each sample, one capsule was weighed, and the content of each capsule was dropped into a 50 mL volumetric flask and the empty capsule shell was weighed and discarded. The specified amount of each vehicle was added as specified in Table 3, below.
The flasks were gently swirled to ensure the capsule contents were visually incorporated with the vehicle. The flasks were kept on the bench at ambient temperature for each time point: 2, 4, and 24 hours. Time 0 samples were processed immediately. At the specified time point a stir bar and approximately 45 mL of diluent were added to the flask. The solution was stirred vigorously for 2 hours, and the flask was left on the bench overnight. The next day the flasks were sonicated for approximately 30 minutes. The stir bar was removed and rinsed carefully with diluent into the flask, and the flask was diluted to volume with diluent and mixed well by inversion. An aliquot of each solution was centrifuged for 5 minutes at 10000 rpm. The supernatant was transferred to a HPLC vial, and injected for analysis.

## CC(C)COc1ccc(CNC(=O)N(Cc2ccc(F)cc2)C2CCN(C)CC2)cc1 [Pimavanserin, N-(4-Fluorophenylmethyl)-N-(1-methylpiperidin-4-yl)-N′-(4-(2-methylpropyloxy)phenylmethyl)carbamide]
Ensure 5 mL, T = 0
  Impurity D: 0.22 % w/w
  Impurity Unknown RRT 0.90: 0.08 % w/w
  Impurity Unknown RRT 0.99: 0.09 % w/w
  Impurity Unknown RRT 1.10: 0.06 % w/w
  Total Imp.: 0.45 % w/w
Ensure 5 mL, T = 2 h
  Impurity D: 0.20 % w/w
  Impurity Unknown RRT 0.90: 0.08 % w/w
  Impurity Unknown RRT 0.99: 0.10 % w/w
  Impurity Unknown RRT 1.10: 0.05 % w/w
  Total Imp.: 0.43 % w/w
Ensure 5 mL, T = 4 h
  Impurity D: 0.23 % w/w
  Impurity Unknown RRT 0.90: 0.08 % w/w
  Impurity Unknown RRT 0.99: 0.09 % w/w
  Impurity Unknown RRT 1.10: 0.06 % w/w
  Total Imp.: 0.46 % w/w
Ensure 5 mL, T = 24 h
  Impurity D: 0.23 % w/w
  Impurity Unknown RRT 0.90: 0.07 % w/w
  Impurity Unknown RRT 0.99: 0.10 % w/w
  Impurity Unknown RRT 1.10: 0.06 % w/w
  Total Imp.: 0.46 % w/w
Any vehicle, over 24 hours at ambient room temperature
  change in impurity profile: no significant change
Applesauce 5 g, T = 0
  Impurity D: 0.19 % w/w
  Impurity Unknown RRT 0.99: 0.09 % w/w
  Total Imp.: 0.28 % w/w
Applesauce 5 g, T = 2 h
  Impurity D: 0.21 % w/w
  Impurity Unknown RRT 0.99: 0.10 % w/w
  Total Imp.: 0.31 % w/w
Applesauce 5 g, T = 4 h
  Impurity D: 0.22 % w/w
  Impurity Unknown RRT 0.99: 0.10 % w/w
  Total Imp.: 0.32 % w/w
Applesauce 5 g, T = 24 h
  Impurity D: 0.22 % w/w
  Impurity Unknown RRT 0.99: 0.09 % w/w
  Total Imp.: 0.31 % w/w
Each vehicle, 0-24 h
  individual and total impurities across timepoints: consistent between all timepoints
Orange juice 5 mL, T = 0
  Impurity D: 0.17 % w/w
  Impurity Unknown RRT 0.99: 0.09 % w/w
  Total Imp.: 0.26 % w/w
Orange juice 5 mL, T = 2 h
  Impurity D: 0.17 % w/w
  Impurity Unknown RRT 0.99: 0.09 % w/w
  Total Imp.: 0.26 % w/w
Orange juice 5 mL, T = 4 h
  Impurity D: 0.17 % w/w
  Impurity Unknown RRT 0.99: 0.09 % w/w
  Total Imp.: 0.26 % w/w
Orange juice 5 mL, T = 24 h
  Impurity D: 0.17 % w/w
  Impurity Unknown RRT 0.99: 0.09 % w/w
  Total Imp.: 0.26 % w/w
Two impurities, samples extracted from vanilla Ensure, time 0
  additional unknown impurities: < 0.1%
Water 5 mL, T = 0
  Impurity D: 0.23 % w/w
  Impurity Unknown RRT 0.99: 0.10 % w/w
  Total Imp.: 0.33 % w/w
Water 5 mL, T = 2 h
  Impurity D: 0.24 % w/w
  Impurity Unknown RRT 0.99: 0.10 % w/w
  Total Imp.: 0.34 % w/w
Water 5 mL, T = 4 h
  Impurity D: 0.23 % w/w
  Impurity Unknown RRT 0.99: 0.10 % w/w
  Total Imp.: 0.33 % w/w
Water 5 mL, T = 24 h
  Impurity D: 0.25 % w/w
  Impurity Unknown RRT 0.99: 0.10 % w/w
  Total Imp.: 0.35 % w/w
